Here are results for four compounds from ChEMBL document CHEMBL3612014, “Discovery of Tyk2 inhibitors via the virtual site-directed fragment-based drug design” (Bioorg Med Chem Lett, 2015).

Data set [1] concerns the target T1, Non-receptor tyrosine-protein kinase TYK2 (Homo sapiens, UniProt P29597). The data set can be described thus: Inhibition of Tyk2 (unknown origin) at 10 uM.
Data set [2] concerns the target T1, Non-receptor tyrosine-protein kinase TYK2. In words: Inhibition of Tyk2 (unknown origin).
The nature of data set [3]: AUC (0 to t) in Sprague-Dawley rat at 5 mg/kg, iv. It counts as ADME, organism-based. The note with it: in vivo.
The nature of data set [4]: Tmax in Sprague-Dawley rat at 5 mg/kg, iv. Type of data set: ADME, organism-based. The note with it: in vivo.
Data set [5] can be described thus: Mean residence time in Sprague-Dawley rat at 5 mg/kg, po. It counts as ADME, organism-based. The note with it: in vivo.
Data set [6] concerns the target T2, Aurora kinase A (Homo sapiens) (UniProt O14965).
T2 sequence (whole entry): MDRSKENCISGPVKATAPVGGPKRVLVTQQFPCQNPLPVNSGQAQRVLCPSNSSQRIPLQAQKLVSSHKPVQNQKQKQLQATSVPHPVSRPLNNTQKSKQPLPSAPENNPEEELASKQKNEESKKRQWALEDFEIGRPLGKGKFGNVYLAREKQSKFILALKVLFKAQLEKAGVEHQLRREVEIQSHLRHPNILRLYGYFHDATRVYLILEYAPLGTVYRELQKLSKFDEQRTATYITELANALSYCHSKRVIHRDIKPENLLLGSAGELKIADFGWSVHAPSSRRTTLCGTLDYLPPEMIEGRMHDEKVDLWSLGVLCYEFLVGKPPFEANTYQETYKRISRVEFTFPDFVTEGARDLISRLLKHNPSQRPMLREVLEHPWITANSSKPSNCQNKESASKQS
In words: Inhibition of aurora-A (unknown origin) at 10 uM.

The target of data set [7] is T3, Tyrosine-protein kinase JAK3 (Homo sapiens) (UniProt P52333).
T3 sequence (whole entry): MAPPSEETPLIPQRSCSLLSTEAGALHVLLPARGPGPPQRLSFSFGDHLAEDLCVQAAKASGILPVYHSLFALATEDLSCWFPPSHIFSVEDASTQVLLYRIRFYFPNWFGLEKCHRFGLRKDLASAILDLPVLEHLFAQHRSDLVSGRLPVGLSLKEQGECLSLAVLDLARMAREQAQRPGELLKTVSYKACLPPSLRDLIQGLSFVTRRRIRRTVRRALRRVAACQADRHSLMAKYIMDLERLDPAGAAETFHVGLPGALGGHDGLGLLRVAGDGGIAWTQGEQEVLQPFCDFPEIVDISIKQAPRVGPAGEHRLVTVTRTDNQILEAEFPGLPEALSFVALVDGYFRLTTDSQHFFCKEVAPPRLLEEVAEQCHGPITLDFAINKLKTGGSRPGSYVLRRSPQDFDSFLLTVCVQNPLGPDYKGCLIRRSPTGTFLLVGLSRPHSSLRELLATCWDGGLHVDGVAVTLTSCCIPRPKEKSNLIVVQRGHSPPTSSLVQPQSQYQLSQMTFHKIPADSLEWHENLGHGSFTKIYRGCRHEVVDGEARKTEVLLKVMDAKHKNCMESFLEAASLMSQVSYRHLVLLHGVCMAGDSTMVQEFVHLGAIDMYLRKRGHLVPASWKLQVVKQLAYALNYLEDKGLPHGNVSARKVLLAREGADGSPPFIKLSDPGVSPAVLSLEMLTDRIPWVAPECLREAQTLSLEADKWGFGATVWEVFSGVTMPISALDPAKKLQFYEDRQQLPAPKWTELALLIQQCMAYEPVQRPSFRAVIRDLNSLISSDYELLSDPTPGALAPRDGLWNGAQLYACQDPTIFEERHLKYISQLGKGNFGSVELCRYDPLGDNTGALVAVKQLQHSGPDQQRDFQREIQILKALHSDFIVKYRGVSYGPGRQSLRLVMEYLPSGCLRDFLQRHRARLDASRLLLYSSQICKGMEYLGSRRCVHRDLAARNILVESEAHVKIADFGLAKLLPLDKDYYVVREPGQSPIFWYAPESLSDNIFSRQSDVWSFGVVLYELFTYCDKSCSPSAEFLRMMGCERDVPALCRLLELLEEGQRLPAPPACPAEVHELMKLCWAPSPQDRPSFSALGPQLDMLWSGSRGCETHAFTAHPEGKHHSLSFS
The data set can be described thus: Inhibition of JAK3 (unknown origin) at 10 uM.

The nature of data set [8]: Cmax in Sprague-Dawley rat at 5 mg/kg, po. The note with it: in vivo. Also on record: dose 5 mg/kg, route oral. Type of data set: ADME, organism-based.
Data set [9] in a line: AUC (0 to infinity) in Sprague-Dawley rat at 5 mg/kg, po. Also on record: dose 5 mg/kg, time infinity, route oral. It counts as ADME, organism-based. To be noted: in vivo.
The target in data set [10] is Serine/threonine-protein kinase PAK 4 (Homo sapiens) (UniProt O96013). In words: Inhibition of PAK4 (unknown origin) at 10 uM.
The nature of data set [11]: Tmax in Sprague-Dawley rat at 5 mg/kg, po. It counts as ADME, organism-based. To be noted: in vivo.
Data set [12] can be described thus: Oral bioavailability in Sprague-Dawley rat at 5 mg/kg. The note with it: in vivo. Type of data set: ADME, organism-based.
Data set [13] is described as follows: AUC (0 to t) in Sprague-Dawley rat at 5 mg/kg, po. Type of data set: ADME, organism-based. To be noted: in vivo.
Data set [14] is described as follows: Mean residence time in Sprague-Dawley rat at 5 mg/kg, iv. Type of data set: ADME, organism-based. The note with it: in vivo.
Data set [15] in a line: Volume of distribution at steady state in Sprague-Dawley rat at 5 mg/kg, iv. Type of data set: ADME, organism-based. To be noted: in vivo, read-out: Vdss.
A short description of data set [16]: Terminal half life in Sprague-Dawley rat at 5 mg/kg, po. It counts as ADME, organism-based. To be noted: in vivo, read-out: beta t1/2 (converted).
A short description of data set [17]: Terminal half life in Sprague-Dawley rat at 5 mg/kg, iv. Type of data set: ADME, organism-based. To be noted: in vivo, read-out: beta t1/2 (converted).
The nature of data set [18]: Cmax in Sprague-Dawley rat at 5 mg/kg, iv. On the set-up: dose 5 mg/kg, route intravenous. Type of data set: ADME, organism-based. The note with it: in vivo.
Data set [19] is described as follows: Systemic plasma clearance in Sprague-Dawley rat at 5 mg/kg, iv. It counts as ADME, organism-based.
Data set [20] addresses Tyrosine-protein kinase JAK2 (Homo sapiens) (UniProt O60674). In words: Inhibition of JAK2 (unknown origin) at 10 uM.
Data set [21] is described as follows: AUC (0 to infinity) in Sprague-Dawley rat at 5 mg/kg, iv. Type of data set: ADME, organism-based. On the set-up: dose 5 mg/kg, route intravenous, time infinity. To be noted: in vivo.
Data set [22] deals with T1, Non-receptor tyrosine-protein kinase TYK2. In words: Inhibition of Tyk2 (unknown origin) at 100 uM.
Data set [23] shares this target. The data set can be described thus: Inhibition of Tyk2 (unknown origin) at 30 uM.
For data set [24] the target is unchanged. In words: Inhibition of Tyk2 (unknown origin) at 3 uM.

Bounds are passed on as bounds.

T1 sequence (P29597 whole entry): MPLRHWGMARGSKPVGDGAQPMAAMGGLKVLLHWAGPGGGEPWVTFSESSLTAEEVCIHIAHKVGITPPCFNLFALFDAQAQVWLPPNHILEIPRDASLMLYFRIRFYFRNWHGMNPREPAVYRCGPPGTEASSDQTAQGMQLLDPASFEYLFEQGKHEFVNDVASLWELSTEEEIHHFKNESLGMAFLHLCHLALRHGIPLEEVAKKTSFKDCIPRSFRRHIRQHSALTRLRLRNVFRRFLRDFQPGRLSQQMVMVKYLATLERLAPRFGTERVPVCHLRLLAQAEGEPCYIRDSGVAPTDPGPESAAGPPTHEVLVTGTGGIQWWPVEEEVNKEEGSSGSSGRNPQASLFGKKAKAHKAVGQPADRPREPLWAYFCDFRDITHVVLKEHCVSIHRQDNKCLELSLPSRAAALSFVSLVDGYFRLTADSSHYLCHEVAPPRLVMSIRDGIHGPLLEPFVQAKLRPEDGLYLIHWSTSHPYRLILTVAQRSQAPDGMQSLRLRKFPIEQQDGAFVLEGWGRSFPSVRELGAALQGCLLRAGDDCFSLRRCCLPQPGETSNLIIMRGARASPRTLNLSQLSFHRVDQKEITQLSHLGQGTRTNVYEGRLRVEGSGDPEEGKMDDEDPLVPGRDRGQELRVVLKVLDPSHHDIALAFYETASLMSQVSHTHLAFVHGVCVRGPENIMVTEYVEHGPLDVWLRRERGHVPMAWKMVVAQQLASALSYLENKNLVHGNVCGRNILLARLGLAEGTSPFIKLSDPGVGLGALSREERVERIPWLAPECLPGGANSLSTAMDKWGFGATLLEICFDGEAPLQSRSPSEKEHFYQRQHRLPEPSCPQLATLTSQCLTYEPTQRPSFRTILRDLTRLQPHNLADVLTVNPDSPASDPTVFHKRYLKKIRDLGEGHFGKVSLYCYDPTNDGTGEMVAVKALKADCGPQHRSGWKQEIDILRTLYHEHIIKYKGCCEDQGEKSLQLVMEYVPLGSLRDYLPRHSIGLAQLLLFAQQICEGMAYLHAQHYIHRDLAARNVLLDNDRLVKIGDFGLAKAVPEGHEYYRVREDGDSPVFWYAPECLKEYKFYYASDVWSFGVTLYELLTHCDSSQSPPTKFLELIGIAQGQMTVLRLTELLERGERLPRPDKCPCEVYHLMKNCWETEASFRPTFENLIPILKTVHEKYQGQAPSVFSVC
Chain of Tyrosine-protein kinase JAK2 (Homo sapiens) (O60674 whole entry): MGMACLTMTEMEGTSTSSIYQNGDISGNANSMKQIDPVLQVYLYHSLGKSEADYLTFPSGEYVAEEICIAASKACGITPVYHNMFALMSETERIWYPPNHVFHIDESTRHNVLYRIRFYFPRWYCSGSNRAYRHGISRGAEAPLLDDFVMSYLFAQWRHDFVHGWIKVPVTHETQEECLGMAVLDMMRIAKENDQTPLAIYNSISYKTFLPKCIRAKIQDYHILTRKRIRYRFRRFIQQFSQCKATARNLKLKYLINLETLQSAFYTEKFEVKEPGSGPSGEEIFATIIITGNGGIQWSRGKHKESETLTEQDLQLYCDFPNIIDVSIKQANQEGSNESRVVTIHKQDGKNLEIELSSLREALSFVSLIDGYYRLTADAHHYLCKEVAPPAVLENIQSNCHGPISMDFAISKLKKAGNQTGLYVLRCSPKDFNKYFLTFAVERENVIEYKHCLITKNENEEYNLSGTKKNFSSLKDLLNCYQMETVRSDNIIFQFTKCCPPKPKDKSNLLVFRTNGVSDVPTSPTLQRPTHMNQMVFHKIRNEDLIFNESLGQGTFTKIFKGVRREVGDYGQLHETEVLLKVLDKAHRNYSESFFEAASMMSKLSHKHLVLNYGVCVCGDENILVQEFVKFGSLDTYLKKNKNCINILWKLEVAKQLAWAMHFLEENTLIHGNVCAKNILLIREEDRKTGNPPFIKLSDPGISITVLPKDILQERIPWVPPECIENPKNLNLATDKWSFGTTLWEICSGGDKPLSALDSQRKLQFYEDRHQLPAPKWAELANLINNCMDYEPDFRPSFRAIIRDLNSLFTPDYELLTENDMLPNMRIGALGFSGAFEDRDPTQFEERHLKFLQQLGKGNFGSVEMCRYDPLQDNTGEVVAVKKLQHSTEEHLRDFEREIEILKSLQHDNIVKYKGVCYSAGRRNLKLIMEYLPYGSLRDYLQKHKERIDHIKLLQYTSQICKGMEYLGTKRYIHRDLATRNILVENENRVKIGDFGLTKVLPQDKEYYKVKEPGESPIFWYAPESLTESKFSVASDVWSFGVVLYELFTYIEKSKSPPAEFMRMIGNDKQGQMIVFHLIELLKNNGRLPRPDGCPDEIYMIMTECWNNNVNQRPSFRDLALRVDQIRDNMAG
Chain of Serine/threonine-protein kinase PAK 4 (Homo sapiens) (O96013 whole entry, looked up): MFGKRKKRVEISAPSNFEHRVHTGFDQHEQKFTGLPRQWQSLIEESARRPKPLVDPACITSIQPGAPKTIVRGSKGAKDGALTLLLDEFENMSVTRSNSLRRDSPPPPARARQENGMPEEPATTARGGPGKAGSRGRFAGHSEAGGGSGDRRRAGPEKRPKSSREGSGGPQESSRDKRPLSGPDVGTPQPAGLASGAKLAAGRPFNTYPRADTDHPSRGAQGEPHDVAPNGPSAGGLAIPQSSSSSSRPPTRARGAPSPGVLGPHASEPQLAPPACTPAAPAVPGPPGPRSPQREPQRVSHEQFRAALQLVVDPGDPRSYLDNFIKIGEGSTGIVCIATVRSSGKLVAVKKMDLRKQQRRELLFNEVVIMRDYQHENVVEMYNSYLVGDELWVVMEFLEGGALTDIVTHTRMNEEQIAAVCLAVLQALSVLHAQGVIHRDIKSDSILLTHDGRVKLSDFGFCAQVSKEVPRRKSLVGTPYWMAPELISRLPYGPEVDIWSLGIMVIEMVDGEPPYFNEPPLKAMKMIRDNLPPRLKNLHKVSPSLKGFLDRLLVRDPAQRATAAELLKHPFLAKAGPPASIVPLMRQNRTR

Broadly, the inhibition is the relative decrease from the control value, in per cent. Higher therefore signals a response far below the control. In the case of `CC(C)c1n[nH]cc1-c1nc2cc(Br)cnc2[nH]1`, the inhibition in data set [1] is < 30%.

By IC50 is commonly meant the midpoint of a concentration-inhibition curve. As a reminder, the AUC(0-t) is the area under the concentration-time curve up to a stated or last time point. High values mean more exposure, low ones less exposure. In general, Tmax refers to the time at which the peak concentration occurs. What is called MRT is the average time that molecules of a dose stay in the body. As usually defined, the Cmax is the maximum level reached in the sampled fluid or tissue. As a reminder, the AUC(0-inf) is total exposure, with the tail of the curve extrapolated. Higher therefore signals high exposure. As usually defined, the bioavailability is dose-corrected exposure relative to a reference, in per cent. Low readings indicate poor availability, high ones good availability. Broadly, the clearance is a measure of how efficiently the substance is removed, as volume per time. The compound `CC(C)c1nn(C)cc1-c1nc2c(N3CCN(Cc4cccnc4)CC3)c(Br)cnc2[nH]1` had an IC50 in data set [2] of 10 nM. Moreover, the AUC(0-t) in [3] was found to be 1420 ng·h/mL; in data set [13], 80 ng·h/mL. In addition, the values for the Tmax in data set [4] and in data set [11] were 4.8 min and 19.8 min, respectively. The values for the MRT in data set [5] and in [14] were 102 min and 47.4 min, respectively. Also, the inhibition in [6] is > 90%; in [7] it was > 90%; in [10], < 50%; in [1] it was 99%; in [20] it was > 90%. Also, the peak concentration (Cmax) was 70 ng/mL in [8] and 1340 ng/mL in [18]. In addition, the values for the AUC(0-inf) in data set [9] and in [21] were 90 ng·h/mL and 1430 ng·h/mL, respectively. In data set [12], this compound had a bioavailability of 6.07%. Also, the Vd in [15] was found to be 2.76 L/kg. Also, the half-life in [16] is 105 min; in data set [17], 49.8 min. In [19], this compound had a clearance of 59 mL/min/kg.

In turn, `CC(C)c1nn(-c2ccccc2)cc1-c1nc2cc(Br)cnc2[nH]1` returned an inhibition in data set [1] of 38%.

`CC(C)c1nn(C)cc1-c1nc2cc(Br)cnc2[nH]1`: the inhibition in data set [22] was 97%; in [23], 92%; in data set [1] it was 83%; in data set [24], 60%.
